# pKd: −log10 of the molar value. Values joined by “and” are separate entries in the source; they are usually repeats but may differ in a detail not shown here. Equal values may be shown once.
# Assays:
# [1] = in vitro; conditions: human; for recovery at 90 min, 10 μM: Caco-2
# [2] = system: DU145, Panc-1, NIH3T3/vSrc and MDA468 cells; type: cell-based; conditions: 24 hrs, lower concentrations; data not shown
# [3] = system: STAT3–STAT3:DNA binding activity in NIH3T3/vSrc; type: cell-based, mouse; conditions: 100 μM; for suppression of STAT3-DNA binding activity (in words): 6 and 24 hrs
# [4] = system: STAT5; assay: STAT5 fluorescence polarization; type: binding; conditions: data not shown
# [5] = system: tumor cells; conditions: cited from earlier work
# [6] = biological target: STAT3-SH2 domain (Mus musculus, UniProt P42227); assay: STAT3 fluorescence polarization; type: binding, murine; conditions: non-phosphorylated analogs; data not shown
# Sequence of STAT3-SH2 domain (P42227 whole entry, the tested form may be a part): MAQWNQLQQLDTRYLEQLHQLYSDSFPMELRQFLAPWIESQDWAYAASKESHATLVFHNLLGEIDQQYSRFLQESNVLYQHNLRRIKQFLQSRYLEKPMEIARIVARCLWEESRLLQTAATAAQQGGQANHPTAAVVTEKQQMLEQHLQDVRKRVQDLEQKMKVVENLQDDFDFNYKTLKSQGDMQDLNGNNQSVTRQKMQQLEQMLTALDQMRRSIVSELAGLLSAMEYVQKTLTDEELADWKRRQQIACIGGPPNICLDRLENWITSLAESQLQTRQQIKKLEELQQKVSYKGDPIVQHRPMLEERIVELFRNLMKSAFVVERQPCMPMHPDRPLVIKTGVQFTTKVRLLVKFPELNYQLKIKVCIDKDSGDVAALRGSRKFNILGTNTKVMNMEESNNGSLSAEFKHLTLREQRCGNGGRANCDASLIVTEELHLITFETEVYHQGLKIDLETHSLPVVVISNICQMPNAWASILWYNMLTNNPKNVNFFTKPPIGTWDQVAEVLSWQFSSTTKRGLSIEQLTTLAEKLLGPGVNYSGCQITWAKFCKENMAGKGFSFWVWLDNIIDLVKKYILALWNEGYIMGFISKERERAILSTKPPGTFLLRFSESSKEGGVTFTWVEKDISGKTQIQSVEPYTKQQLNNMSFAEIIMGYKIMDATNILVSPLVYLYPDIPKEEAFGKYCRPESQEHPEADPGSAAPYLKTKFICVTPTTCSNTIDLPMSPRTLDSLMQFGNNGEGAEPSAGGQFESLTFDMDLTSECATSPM
# [7] = Permeability and efflux analysis in Caco-2 cells; conditions: human
# [8] = biological target: gp130 (Homo sapiens) (UniProt P40189); assay: SPR; conditions: cited from earlier work
# Sequence of gp130 (Homo sapiens) (P40189 whole entry, looked up): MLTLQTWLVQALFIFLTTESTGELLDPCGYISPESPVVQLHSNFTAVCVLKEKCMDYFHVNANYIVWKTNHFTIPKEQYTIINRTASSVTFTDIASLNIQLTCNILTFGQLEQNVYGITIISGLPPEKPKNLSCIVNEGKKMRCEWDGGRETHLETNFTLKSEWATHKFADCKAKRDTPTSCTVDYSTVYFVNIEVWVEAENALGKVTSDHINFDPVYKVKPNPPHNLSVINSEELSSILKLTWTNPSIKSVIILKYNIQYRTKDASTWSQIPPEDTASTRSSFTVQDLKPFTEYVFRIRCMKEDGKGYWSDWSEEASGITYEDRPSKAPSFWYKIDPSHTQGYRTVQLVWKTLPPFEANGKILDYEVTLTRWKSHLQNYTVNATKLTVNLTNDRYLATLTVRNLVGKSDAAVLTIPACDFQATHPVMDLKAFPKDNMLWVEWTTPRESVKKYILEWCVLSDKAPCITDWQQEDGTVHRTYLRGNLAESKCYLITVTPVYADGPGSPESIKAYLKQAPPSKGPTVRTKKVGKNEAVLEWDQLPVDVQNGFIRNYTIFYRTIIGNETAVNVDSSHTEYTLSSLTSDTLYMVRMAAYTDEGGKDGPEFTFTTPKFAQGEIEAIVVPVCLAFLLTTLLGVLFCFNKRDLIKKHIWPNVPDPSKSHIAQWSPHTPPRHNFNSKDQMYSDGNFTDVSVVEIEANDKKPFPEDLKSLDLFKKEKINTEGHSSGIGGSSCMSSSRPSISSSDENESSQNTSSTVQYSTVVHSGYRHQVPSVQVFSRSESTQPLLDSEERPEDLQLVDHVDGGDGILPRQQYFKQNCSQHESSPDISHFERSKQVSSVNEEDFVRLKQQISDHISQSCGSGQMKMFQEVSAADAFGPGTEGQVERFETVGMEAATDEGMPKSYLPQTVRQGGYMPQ
# Sequence of STAT3 (P40763 2-770): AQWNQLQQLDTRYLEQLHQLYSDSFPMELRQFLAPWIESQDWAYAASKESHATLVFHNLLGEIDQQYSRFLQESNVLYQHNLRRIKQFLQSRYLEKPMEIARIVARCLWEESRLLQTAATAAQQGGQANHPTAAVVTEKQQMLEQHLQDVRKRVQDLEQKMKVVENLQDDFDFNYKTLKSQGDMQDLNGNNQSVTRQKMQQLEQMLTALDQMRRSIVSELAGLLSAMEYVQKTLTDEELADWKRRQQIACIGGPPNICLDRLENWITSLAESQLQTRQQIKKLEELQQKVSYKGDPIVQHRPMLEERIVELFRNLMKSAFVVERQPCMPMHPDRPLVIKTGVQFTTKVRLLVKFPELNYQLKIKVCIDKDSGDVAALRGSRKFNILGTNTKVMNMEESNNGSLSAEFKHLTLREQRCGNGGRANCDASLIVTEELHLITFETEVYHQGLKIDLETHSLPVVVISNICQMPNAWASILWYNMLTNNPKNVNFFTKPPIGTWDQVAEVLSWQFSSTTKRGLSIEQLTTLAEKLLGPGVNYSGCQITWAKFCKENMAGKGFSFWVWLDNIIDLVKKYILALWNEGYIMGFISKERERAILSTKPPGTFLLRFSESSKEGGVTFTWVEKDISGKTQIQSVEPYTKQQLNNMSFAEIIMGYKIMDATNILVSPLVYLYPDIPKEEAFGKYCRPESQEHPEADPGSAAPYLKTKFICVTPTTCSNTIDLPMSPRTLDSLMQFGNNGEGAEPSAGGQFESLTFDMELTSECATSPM
inhibition of the STAT3–phosphopeptide complex (FP) [6],"Papp at 90 min, 10 μM [7]",Molecule,"recovery at 90 min, 10 μM [1]",STAT3 activity after 24 h [3],effect on STAT5 in FP assay [4],suppression of STAT3-DNA binding activity (in words) [3],also measured
–,–,"CC(C)C[C@H](NC(=O)[C@H](Cc1ccc(OP(=O)(O)O)cc1)NC(=O)c1ccc(C#N)cc1)C(=O)Nc1cc(C(=O)NCc2ccccc2)cc(-c2ccc(C(N)=O)cc2)c1 [Inhibitor 14ba, 4-((S)-3-(((S)-1-((5-(benzylcarbamoyl)-4′-carbamoyl-[1,1′-biphenyl]-3-yl)amino)-4-methyl-1-oxopentan-2-yl)amino)-2-(4-cyanobenzamido)-3-oxopropyl)phenyl dihydrogen phosphate]",1 to 2%,partially recovered,no effect,–,"Papp A→B at 90 min, 10 μM ([1]; Caco-2, pH 7.4): < 0.5 ×10⁻⁶ cm/s; anti-cancer activity (cell viability, in words) [2]: only limited anti-cancer activity"
–,–,CC(C)C[C@H](NC(=O)[C@H](Cc1ccc(OP(=O)(O)O)cc1)NC(=O)c1ccc(C#N)cc1)C(=O)O [ISS610],–,–,–,–,dosage required for cellular activities [5]: mM dosages
–,–,"CC(C)C[C@H](NC(=O)[C@H](Cc1ccc(OP(=O)(O)O)cc1)NC(=O)c1ccc(C#N)cc1)C(=O)Nc1ccc(C(=O)NCc2ccccc2)c(-c2ccc(C(N)=O)cc2)c1 [Inhibitor 14aa, 4-((S)-3-((S)-1-(6-(benzylcarbamoyl)-4′-carbamoylbiphenyl-3-ylamino)-4-methyl-1-oxopentan-2-ylamino)-2-(4-cyanobenzamido)-3-oxopropyl)phenyl dihydrogen phosphate]",1 to 2%,partially recovered,no effect,–,suppression of STAT3-DNA binding activity ([3]; after 6 h): 80% and > 80%
neither peptidomimetic inhibited,< 2 ×10⁻⁶ cm/s,"CC(C)C[C@H](NC(=O)[C@H](Cc1ccc(O)cc1)NC(=O)c1ccc(C#N)cc1)C(=O)Nc1cc(C(=O)NCc2ccccc2)cc(-c2ccc(C(N)=O)cc2)c1 [Inhibitor 14ba-OH, N^3-benzyl-5-((S)-2-((S)-2-(4-cyanobenzamido)-3-(4-hydroxyphenyl)propanamido)-4-methylpentanamido)-[1,1′-biphenyl]-3,4′-dicarboxamide]",–,–,–,negligible disruption,–
–,–,STAT3 (from UniProt P40763),–,–,–,–,pKd [8]: 7.62
neither peptidomimetic inhibited,< 2 ×10⁻⁶ cm/s,CC(C)C[C@H](NC(=O)[C@H](Cc1ccc(O)cc1)NC(=O)c1ccc(C#N)cc1)C(=O)Nc1ccc(C(=O)NCc2ccccc2)c(-c2ccc(C(N)=O)cc2)c1 [Inhibitor 14aa-OH],–,–,–,almost the same potency as 14aa,–
